Experimental findings from patent US12492403B2, “Aptamers and the use thereof in the treatment of cancer” (FUNDACIÓN PARA LA INVESTIGACIÓN BIOMÉDICA DEL HOSPITAL …, priority 2018, dated 2025) are described below.

One data set concerns DNase I. Briefly: Stability in the presence of DNase I. The format is in vitro ADME, human. To be noted: 1 unit of DNase I, 5 minutes at 37° C. On the procedure: (§1) FIGS. 7A and 7B. Stability of apMNKQ2. Chip Experion™ DNA 1K Analysis Kit (BioRad, USA) for analyzing the stability of apMNKQ2 with 1 unit, 0.5 units, and 0.25 units of DNase I (FIG. 7A). In FIG. 7B, the degradation of aptamer apMNKQ2 in human plasma at 0, 6, 16, 24, 48, and 72 hours is depicted.
In the context of the present invention, the term “incubated” is understood to mean being subjected to the assay conditions, specifically to incubation in a buffer with 10 mM Tris HCl, pH 7.5, 2.5 mM MgCl2, and 0.1 mM CaCl2).
In the context of the present invention, the term “1 unit of DNase I” is understood to mean the amount of DNase I which completely degrades 1 μg of DNA in 10 minutes at 37° C.
In the context of the present invention, “DNase I” is understood to mean the deoxyribonuclease-I protein encoded by the human DNASE1 gene. […]
The previously structured aptamer apMNKQ2 (1 μg) was incubated in the presence of 1 unit, 0.5 units, and 0.25 units of the enzyme DNase I (ThermoFisher Scientific, USA) in the buffer supplied by the company (10 mM Tris HCl, pH 7.5, 2.5 mM MgCl2, 0.1 mM CaCl2)) for 5 minutes at 37° C., and the reaction was then stopped by adding 1 μL of 50 mM EDTA (ThermoFisher Scientific, USA) and heating at 65° C. for 10 minutes. […] The samples were analyzed using an Experion™ DNA 1K Analysis Kit chip (BioRad, USA). […]

Data set [1] relates to 4T1 cells. In words: Transwell migration assay in 4T1 cells. The format is cell-based, mouse. To be noted: 500 nM, 24 hours migration. Here is the method: FIG. 21A-21E. In vivo efficacy of apMNKQ2 in a mouse metastatic model with an orthotopic xenograft of 4T1 cells. (A) Effect of apMNKQ2 aptamer on the proliferation of 4T1 cells (mouse breast tumor line). 4T1 cells were seeded in p96 at a density of 1.5×10^3 cells/well. […] The graph (FIG. 21A) represents the means±SEM of 3 independent experiments. (B) Effect of apMNKQ2 aptamer on migration and invasion of 4T1 cells. Cells were seeded in p6 at a density of 2×10^5 cells/well and transfected with 500 nM apMNKQ2 at 24 hours. […] At 24 hours (migration) or 48 h (invasion), the transwell membranes were stained with Hoechst and the cells that had passed through the fluorescence microscopy were quantified. […] The number of metastases is analyzed by the reverse staining method (with Chinese ink) and the metastases grouped according to their size in four groups (0.5, 1, 2 and >2). […]
Cell migration and invasion assays were performed using transwell (Corning, USA). […] After that time, they were collected, counted, and reseeded 4×10^4 cells in 300 μl of a serum-free complete medium inside the transwell (migration) or a transwell on which a layer of 100 μL of Matrigel (Corning, USA) (invasion) had previously been polymerized. […] Finally, two washes in PBS were performed, and 5 photographs of each membrane of the transwell were taken using a fluorescence microscope (Olympus IX70). […]

The test system of data set [2] is 4T1 cells. Briefly: MTT activity assay in 4T1 cells. The format is cell-based, mouse. To be noted: 4T1 cells, 0, 250, 500 and 1000 nM, 48 hours. Here is the method:
FIG. 21A-21E. In vivo efficacy of apMNKQ2 in a mouse metastatic model with an orthotopic xenograft of 4T1 cells. (A) Effect of apMNKQ2 aptamer on the proliferation of 4T1 cells (mouse breast tumor line). 4T1 cells were seeded in p96 at a density of 1.5×10^3 cells/well. […] The graph (FIG. 21A) represents the means±SEM of 3 independent experiments. (B) Effect of apMNKQ2 aptamer on migration and invasion of 4T1 cells. Cells were seeded in p6 at a density of 2×10^5 cells/well and transfected with 500 nM apMNKQ2 at 24 hours. At 6 hours they were deprived of serum, and after 24 hours they were collected and re-seeded (4×10^4 cells/well) in a transwell […]. At 24 hours (migration) or 48 h (invasion), the transwell membranes were stained with Hoechst and the cells that had passed through the fluorescence microscopy were quantified. Values (FIG. 21B) represent the mean±SEM of 2-3 independent experiments. In vivo efficacy of apMNKQ2 in a mouse metastatic model with an orthotopic xenograft of 4T1 cells. […] The number of metastases is analyzed by the reverse staining method (with Chinese ink) and the metastases grouped according to their size in four groups (0.5, 1, 2 and >2). […]
MTT activity. […] After 48 hours, the reduction of MTT was determined by means of spectrophotometry in Infinite F200 (TECAN, Switzerland) at 540 nm.
For orientation: Tetrazolium assays rely on reduction of a dye to a coloured formazan, in cell work by metabolically active cells.

Data set [3] can be described thus: Stability in human plasma. In kind it is in vitro ADME. Particulars: 37° C., 72 hours. Here is the method:
as §1
The previously structured aptamer apMNKQ2 (1 μg) was incubated in the presence of 1 unit, 0.5 units, and 0.25 units of the enzyme DNase I (ThermoFisher Scientific, USA) in the buffer supplied by the company (10 mM Tris HCl, pH 7.5, 2.5 mM MgCl2, 0.1 mM CaCl2)) for 5 minutes at 37° C., and the reaction was then stopped by adding 1 μL of 50 mM EDTA (ThermoFisher Scientific, USA) and heating at 65° C. for 10 minutes. […] The samples were analyzed using an Experion™ DNA 1K Analysis Kit chip (BioRad, USA). The intensity of each of the bands corresponding to the aptamers treated or not treated with DNase I or plasmas was assessed and the percentage of stability was calculated by dividing the value obtained for each of the treated aptamers by the value obtained for the untreated aptamer.
Resistance of the aptamer to degradation by DNases was analyzed by incubating […] of structured apMNKQ2 in the presence of three concentrations of DNase I (Thermo Scientific, USA), as described in the Materials and Methods section. […]

As for “5′TGGGGTGGGCGGGCGGGGGTGGGGGTGGT-3′ (DNA, backbone and methylation of C not given here; further chemistry not fully specified) [apMNKQ2]”, the stability with DNase I was 100%. In addition, in the data set with 4T1 cells [1], the “migration of 4T1 cells” value is listed as “significantly decrease”. The “cell proliferation as measured by MTT activity” value with 4T1 cells [2] was “does not affect cell proliferation”. The “degradation in human plasma” value in data set [3] is “no degradation”.
